According to patent US7863350B2, “Food preservation compositions and methods of use thereof” (priority 2007, dated 2011):
Values joined by “and” are separate entries in the source; they are usually repeats but may differ in a detail not shown here. Equal values may be shown once.

What was measured:
yeast and mold = conditions: 4° C., up to 10 days
Salmonella sp. [1] = test: Survival of Salmonella on sliced tomato packaged with volatile antimicrobials at about 4° C. (Example 2); assay type: cell-based; conditions: for effectiveness against Salmonella on slices: 10 days, origanum 150 μl, basil 75 μl, chlorine dioxide in absorbent or as spray, cyclodextrine forms high level, cinnamaldehyde 35 μl with spray
Method: The effect of volatile antimicrobials on the survival of Salmonella sp. in packaged sliced tomato was determined. The antimicrobials tested were origanum oil, basil oil, cyclodextrine cinnamaldehyde, chlorine dioxide as spray and in absorbent, and allyl isothiocyanate in cyclodextrine. The combinations of cinnamaldehyde with chlorine dioxide and allyl isothiocyanate in cyclodextrine with cinnamaldehyde were also tested.
(§1) Slices were inoculated with 5 Salmonella strains that included S. poona (cantaloupe associated outbreak), S. stanley H 1256 (Alfafa sprout associated outbreak), S. baildon (tomato associated outbreak), S. typhimurium DT 104 (multiple antibiotic resistant) and S. montevideo (tomato associated outbreak). […] Then, the specified volatile antimicrobials were pipetted into the wells of each package. The inoculated packages were stored at 4±1° C. for 10 days.
(§2) Inoculated and uninoculated tomato slices were analyzed at days 0 and 10. […] The diluted samples were plated on MacCkonkey agar plates. The plates were incubated at 37° C. for 18 hr and typical Salmonella colonies counted.

Salmonella [2] = test: Location of viable Salmonella on tomato slices after storage with antimicrobials; assay type: cell-based; conditions: about 4° C.; for viable Salmonella in Portion 1: Table 5
Method: as §1, §2
Tomato slices were inoculated with Salmonella between slices and placed in trays. […] The day 0 data (data is taken the day after inoculation) presented in Table 4 indicates no difference in the location of the inoculum between the Control 1 trays and the Control 2 tray at “0” time. After 10 days of storage, slices still had Salmonella distributed throughout; however, the distribution differed between Control 1 trays and Control 2 trays. The Salmonella in the Control 2 trays were located primarily at the top most portion of the slice (average of 72% of Salmonella on the top skin), whereas the Control 1 trays had high numbers at the bottom of the slice (average of 41% in bottom two portions). The total number of Salmonella increased on the slices to a similar extent for both tray types (Table 1).

Salmonella [3] = test: Salmonella in the absorbent in trays after 11 days (Example 2); assay type: cell-based; conditions: about 4° C.
Method: (§3) The absorbent in the trays was analyzed for aerobic plate count and salmonella levels at the conclusion of the study. The data was obtained on day 11.

aerobic microflora [4] = test: Aerobic Plate Count of the absorbent in trays after 11 days (Example 2); assay type: cell-based; conditions: for growth inhibition (APC) in the absorbent over the control absorbent: about 4° C.
Method: as §3

Salmonella sp. [5] = test: Survival of Salmonella on sliced tomatoes with low levels of antimicrobials at 4° C. (Example 3); assay type: cell-based; conditions: for Survival of Salmonella on sliced tomatoes, 5 days: about 4° C.
Method: The effect of low levels of specified antimicrobials on survival of Salmonella sp. in packaged sliced tomato under refrigeration (4±1° C.) was determined. The volatile antimicrobials tested were chlorine dioxide, allyl isothiocyanate cyclodextrine, origanum cyclodextrine, cinnamaldehyde cyclodextrine and basil cyclodextrine.
Slices were inoculated with 5 Salmonella strains that included S. poona (cantaloupe associated outbreak), S. stanley H 1256 (Alfafa sprout associated outbreak), S. baildon (tomato associated outbreak), S. typhimurium DT 104 (multiple antibiotic resistant) and S. montevideo (tomato associated outbreak). […] The inoculated packages were stored at 4±1° C. for 10 days.
(§4) Inoculated and uninoculated tomato slices were analyzed at 0, 5 and 10 days. […] The plates were incubated at 37° C. for 18 hr and typical Salmonella colonies counted. The absorbent (fluid in case of Control 1 trays) was analyzed for Salmonella and Aerobic Plate Count by plating appropriate dilution of the gel/fluid on MacConkey agar plates and Plate Count Agar.

Salmonella [6] = test: Salmonella counts in the absorbent/juice from trays after 10 days (Example 3); assay type: cell-based; conditions: about 4° C.
Method: as §4

aerobic microflora [7] = test: Aerobic plate count in the absorbent/juice from trays after 10 days (Example 3); assay type: cell-based; conditions: about 4° C.
Method: as §4

Salmonella spp. = test: Survival of Salmonella spp. in packaged sliced tomato with volatile oils at about 11° C.; assay type: cell-based; conditions: for Salmonella on sliced tomatoes, Day 9: 9 days at about 11° C.
From the text: The effect of origanum, basil, and cinnamaldehyde oils on the survival of Salmonella sp. in packaged sliced tomato was studied. Five Salmonella serotypes were used namely, S. poona (cantaloupe associated outbreak), S. stanley H 1256 (Alfa Alfa sprout associated outbreak), S. baildon (tomato associated outbreak), S. typhimurium DT 104 and S. montevideo (tomato associated outbreak). Five μl of the cocktail was inoculated on top of three tomato slices in package to have a target inoculum of 5×10^6 CFU/slice. Then, 12, 35, and 75 μl of each volatile antimicrobial agent were pipetted into the wells of the separate packages. The packages were stored at 11° C. for 9 days. After 8 days of incubation mold was observed on some slices in some packages.
The inoculated tomato slices were analyzed at day 0 and 9. Each slice was mixed with 90 ml 0.1% peptone water and stomached for 1 min. Next, 1 ml of the stomached material was diluted in 9 ml 0.1% peptone and spiral plated on MacCkonkey agar plates. The plates were incubated at 37° C. for 18 hr.
The data was analyzed by the General Linear Method using SAS 9.1. […] All results are for Day 9 except for the control. All day 0 counts were the same as the control. […] The other results include both the volatile antimicrobial agent and absorbent materials.

[8] = system: pathogenic and aerobic microorganisms

O=C(O)CC(O)(CC(=O)O)C(=O)O [Citric acid, citric acid]
yeast and mold growth in tomato juice in gel (yeast and mold): little effect

[O][Cl+][O-] [Chlorine Dioxide, chlorine dioxide]
effectiveness against Salmonella on slices (Salmonella sp. [1]): most effective | effectiveness against Salmonella on slices (Salmonella sp. [1]; listed as Chlorine dioxide spray): little effect | Survival of Salmonella on sliced tomatoes (Table 2) (Salmonella sp. [1]; Day 0): 4.88 Log CFU/Slice | Survival of Salmonella on sliced tomatoes (Table 3) (Salmonella sp. [1]; Day 0, spray 2.54 ml/tray): 5.27^bcd Log CFU/Slice | Survival of Salmonella on sliced tomatoes (Table 2) (Salmonella sp. [1]; Day 10, chlorine dioxide in absorbent, amount not given): 4.32 Log CFU/Slice | Survival of Salmonella on sliced tomatoes (Table 3) (Salmonella sp. [1]; Day 10, spray 2.54 ml/tray): 5.17^cde Log CFU/Slice | viable Salmonella in Portion 1 (top portion of skin) (Salmonella [2]; Table 4, Day 10, chlorine dioxide, amount not given): 70 % of total survivors and 69 % of total survivors and 81 % of total survivors | viable Salmonella in Portion 1 (Salmonella [2]; Day 0, spray, listed as Chlorine Dioxide Spray): 56 % of total survivors and 55 % of total survivors and 79 % of total survivors | Salmonella in the absorbent in trays (Table 8) (Salmonella [3]; chlorine dioxide, amount not given): 1.40 Log CFU/ml | Salmonella in the absorbent in trays (Table 9) (Salmonella [3]; spray): 2.21 Log CFU/ml | Aerobic Plate Count of the absorbent in trays (Table 6) (aerobic microflora [4]; 4° C., chlorine dioxide, amount not given): 4.63 Log CFU/ml | growth inhibition (APC) in the absorbent over the control absorbent (aerobic microflora [4]): did not produce much additional growth inhibition | growth inhibition (APC) in the absorbent over the control absorbent (aerobic microflora [4]; listed as chlorine dioxide spray): increased growth inhibition | Survival of Salmonella on sliced tomatoes, 5 days (Salmonella sp. [5]; 0.024 g per tray): 6.32 Log CFU/g | Survival of Salmonella on sliced tomatoes, 5 days (Salmonella sp. [5]; 0.052 g per tray): 5.61 Log CFU/g | Survival of Salmonella on sliced tomatoes, 5 days (Salmonella sp. [5]; 0.112 g per tray): 5.90 Log CFU/g | Survival of Salmonella on sliced tomatoes, 5 days (Salmonella sp. [5]; 0.25 g per tray): 5.65 Log CFU/g | Survival of Salmonella on sliced tomatoes, 5 days (Salmonella sp. [5]; 0.4 g per tray): 5.96 Log CFU/g | Survival of Salmonella on sliced tomatoes, 10 days (Salmonella sp. [5]; 10 days, 4° C., 0.024 g per tray): 5.89 Log CFU/g | Survival of Salmonella on sliced tomatoes, 10 days (Salmonella sp. [5]; 10 days, 4° C., 0.052 g per tray): 5.65 Log CFU/g | Survival of Salmonella on sliced tomatoes, 10 days (Salmonella sp. [5]; 10 days, 4° C., 0.112 g per tray): 5.42 Log CFU/g | Survival of Salmonella on sliced tomatoes, 10 days (Salmonella sp. [5]; 10 days, 4° C., 0.25 g per tray): 5.32 Log CFU/g | Survival of Salmonella on sliced tomatoes, 10 days (Salmonella sp. [5]; 10 days, 4° C., 0.4 g per tray): 5.15 Log CFU/g | effect on Salmonella on tomato slices (Salmonella sp. [5]; 10 days, 4° C., added to absorbent): significantly reduced levels | Salmonella in the absorbent/juice (Salmonella [6]; 0.024 g per tray): 3.26 Log CFU/g | Salmonella in the absorbent/juice (Salmonella [6]; 0.052 g per tray): 4.39 Log CFU/g | Salmonella in the absorbent/juice (Salmonella [6]; 0.112 g per tray): 4.43 Log CFU/g | Salmonella in the absorbent/juice (Salmonella [6]; 0.4 g per tray): 3.77 Log CFU/g | killing of Salmonella that dripped into the absorbent (Salmonella [6]; AITC at 36): reduced the pathogen numbers | Aerobic Plate Count in the absorbent/juice (aerobic microflora [7]; 0.024 g per tray): <2.3 Log CFU/g | Aerobic Plate Count in the absorbent/juice (aerobic microflora [7]; 0.052 g per tray): 4.62 Log CFU/g | Aerobic Plate Count in the absorbent/juice (aerobic microflora [7]; 0.112 g per tray): 5.1 Log CFU/g | Aerobic Plate Count in the absorbent/juice (aerobic microflora [7]; 0.25 g per tray): <2.3 Log CFU/g | Aerobic Plate Count in the absorbent/juice (aerobic microflora [7]; 0.4 g per tray): <2.3 Log CFU/g

O=CC=Cc1ccccc1 [Cinnamaldehyde, cinnamaldehyde]
Salmonella on sliced tomatoes, Day 9 (Salmonella spp.; 12 μl per package): 5.76 ± 0.34 Log CFU/Slice | Salmonella on sliced tomatoes, Day 9 (Salmonella spp.; 35 μl per package): 5.34 ± 0.02 Log CFU/Slice | Salmonella population (Salmonella spp.; 9 days, 11° C., origanum 35 or 75, basil 12, cinnamaldehyde 12 and 35 μl): declined significantly | relative antimicrobial potency (Salmonella spp.; among origanum, basil and cinnamaldehyde oils): most potent antimicrobial | Survival of Salmonella on sliced tomatoes (Table 3) (Salmonella sp. [1]; Day 10, 35 μl): 4.78^fg Log CFU/Slice | Survival of Salmonella on sliced tomatoes (Table 3) (Salmonella sp. [1]; Day 10, 75 μl): 4.67^fg Log CFU/Slice | viable Salmonella in Portion 1 (Salmonella [2]; Day 10, 75 μl): 75 % of total survivors and 73 % of total survivors and 87 % of total survivors and 91 % of total survivors | Salmonella in the absorbent in trays (Table 9) (Salmonella [3]; 35 μl): 2.83 Log CFU/ml | Salmonella in the absorbent in trays (Table 9) (Salmonella [3]; 75 μl): 2.04 Log CFU/ml | growth inhibition (APC) in the absorbent over the control absorbent (aerobic microflora [4]): little growth inhibition

C/C=C/C=C/C(=O)[O-].[K+] [Potassium sorbate, potassium sorbate]
effectiveness of higher vs lower levels [8]: marginally more effective | inhibition of growth of pathogenic and aerobic microorganisms in the gel/tomato juice mixture [8]: effective at inhibiting growth | bacteria in tomato juice in gel (total bacterial count; 4° C., up to 10 days): kills bacteria | preservation of the gel / growth of yeast, mold and bacteria compared to the control (total bacterial count; 10 day period, 4° C. storage temperature): adequate to preserve the gel | yeast and mold growth in tomato juice in gel (yeast and mold): allows little growth
